Measurements published in PubChem BioAssay AID1845204 (Molecular Pharmacology Branch, DTP, NCI, 2023).

System: HSSY-II tumor spheroid viability
Test: Anticancer human tumor HSSY-II cell line growth inhibition;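 note: spheroids exposed to compounds for seven days before reading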;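 for viability, T/C: percent of DMSO vehicle control viability so 100% = untreated level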
Settings: spheroids with HUVEC and MSC; for IC50: curve of first compound; for viability, T/C: stronger effect = lower value
Outline: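 Complex spheroids of malignant cells with endothelial cells and mesenchymal stem cells; agents alone or combined, from near clinical Cmax (or 10 microM if unknown) down in half-log steps, 0.25% DMSO final.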

Compound Cc1sc2c(c1C)C(c1ccc(Cl)cc1)=NC(CC(=O)Nc1ccc(O)cc1)c1nnc(C)n1-2 (stereo not given) + CC[C@@]1(O)C(=O)OCc2c1cc1n(c2=O)Cc2cc3c(CN(C)C)c(O)ccc3nc2-1 has an IC50 (second compound 0.003 µM) of 90.9 nM, an IC50 (second compound 0.00949 µM) of under 9.49 nM and an IC50 (second compound 0.03 µM) of under 9.49 nM. It also gave an IC50 (second compound 0.0949 µM) of under 9.49 nM, an IC50 (second compound 0.3 µM) of under 9.49 nM and a viability, T/C (second compound 0.003 µM, first compound 0.00949 µM) of 78.6%. It also gave a viability, T/C (second compound 0.003 µM, first compound 0.03 µM) of 70.5%, a viability, T/C (second compound 0.003 µM, first compound 0.0949 µM) of 49.2% and a viability, T/C (second compound 0.003 µM, first compound 0.3 µM) of 23.5%. It also gave a viability, T/C (second compound 0.003 µM, first compound 0.949 µM) of 9.78%, a viability, T/C (second compound 0.003 µM, first compound 3 µM) of 7.01% and a viability, T/C (second compound 0.00949 µM, first compound 0.00949 µM) of 37.7%. For the same compound, the viability, T/C (second compound 0.00949 µM, first compound 0.03 µM) was 35.2%, the viability, T/C (second compound 0.00949 µM, first compound 0.0949 µM) was 21.8% and the viability, T/C (second compound 0.00949 µM, first compound 0.3 µM) was 15.4%. It also gave a viability, T/C (second compound 0.00949 µM, first compound 0.949 µM) of 8.01%, a viability, T/C (second compound 0.00949 µM, first compound 3 µM) of 4.79% and a viability, T/C (second compound 0.03 µM, first compound 0.00949 µM) of 7.22%. It also gave a viability, T/C (second compound 0.03 µM, first compound 0.03 µM) of 6.32%, a viability, T/C (second compound 0.03 µM, first compound 0.0949 µM) of 6.41% and a viability, T/C (second compound 0.03 µM, first compound 0.3 µM) of 5.13%. It also gave a viability, T/C (second compound 0.03 µM, first compound 0.949 µM) of 2.41%, a viability, T/C (second compound 0.03 µM, first compound 3 µM) of 2.5% and a viability, T/C (second compound 0.0949 µM, first compound 0.00949 µM) of 5.51%. For the same compound, the viability, T/C (second compound 0.0949 µM, first compound 0.03 µM) was 5.61%, the viability, T/C (second compound 0.0949 µM, first compound 0.0949 µM) was 5.13% and the viability, T/C (second compound 0.0949 µM, first compound 0.3 µM) was 4.3%. For the same compound, the viability, T/C (second compound 0.0949 µM, first compound 0.949 µM) was 2.91%, the viability, T/C (second compound 0.0949 µM, first compound 3 µM) was 2.35% and the viability, T/C (second compound 0.3 µM, first compound 0.00949 µM) was 4.66%. For the same compound, the viability, T/C (second compound 0.3 µM, first compound 0.03 µM) was 4.16%, the viability, T/C (second compound 0.3 µM, first compound 0.0949 µM) was 4.31% and the viability, T/C (second compound 0.3 µM, first compound 0.3 µM) was 3.08%. It also gave a viability, T/C (second compound 0.3 µM, first compound 0.949 µM) of 1.91% and a viability, T/C (second compound 0.3 µM, first compound 3 µM) of 0.64%.
